According to US9062047B2, “Crystalline form of pyrimido[6,1-A] isoquinolin-4-one compound” (Verona Pharma plc, priority 2010, dated 2015):

Tests used:
[1] = Thermodynamic aqueous solubility by HPLC; format: physicochemical; conditions: purified water; for Aqueous solubility: pH 7, 25° C., 24 hours, 20 mg in 1 ml
Protocol: Thermodynamic Aqueous Solubility by HPLC: Aqueous solubility was determined by suspending sufficient compound in HPLC grade water to give a maximum final concentration of ≧20 mg ml^−1 of the parent compound. The suspension was equilibrated at 25° C. for 24 hours. The suspension was then filtered through a filter into a HPLC vial. The filtrate was then diluted by an appropriate factor. Quantification was executed by HPLC with reference to a standard solution of approximately 0.5 mg ml^−1 in Acetonitrile:Water: (1:1). Different volumes of the standard, diluted and undiluted sample solutions were injected. The solubility was calculated using the peak areas determined by integration of the peak found at the same retention time as the principal peak in the standard injection.
Analysis was performed on an Agilent 1100 series liquid chromatography, equipped with a UV detector (DAD or VWD) @254 nm and using Chemstation Rev.B.01.03 software for data processing. Chemical purity determination by HPLC.
As amorphous material and Form I were in hand, both samples were exposed to a straight forward aqueous solubility study in purified water at 25° C. This experiment was performed as it was unknown whether crystalline or amorphous material was initially isolated in-house during a previous synthesis campaign.
• A suspension of 20 mg of the candidate was mixed in purified water (1 ml, pH 7). The suspension was equilibrated at 25° C. for 24 hours. The suspension was then filtered into an HPLC vial and the filtrate then diluted by an appropriate factor with quantification being executed by HPLC with reference to a standard solution.

[2] = Crash cooling of a melt, LC/HPLC analysis (stability at temperature); format: physicochemical
Protocol: As there was historical experimental proof of generating amorphous material by heating RPL554 Form I up to 245° C. and rapidly cooling the melt, a repeat of this method was performed (TGA basis) and produced the same, clear, yellow, glass like material.
A proposed glass transition can be observed at approximately 120° C., with no formal recrystallisation observed. While this experiment was running, the sample was submitted for LC analysis, as stability at temperature was known to be a potential issue (observation of TGA). […] The experiment was repeated at a lower temperature (240° C.), this trying to avoid decomposition and thus return a better profile in terms of purity. LC analysis returned a similar profile of very low purity and various secondary products. It was therefore apparent that amorphous material would not be generated in this manner.

[3] = Slurry maturation (heat/cool cycles), XRPD; format: physicochemical; conditions: 24 solvents, cycled 20° C./50° C., 8 hour periods, 4 days
Protocol: 24× Slurry maturations were performed in an attempt to stress the current crystalline solid into undergoing form transformation.
• Some 20 mg of material was agitated in glass tubes in approximately 30 volumes of solvent and cycled between isothermal periods (8 hours) of 20° C. and 50° C. After 4 days of cycling, the solids were filtered off and dried in vacuo at 45° C. prior to analysis by XRPD. All results were compared to the starting material, RPL554 (Form I); see Table 4.

[4] = Applied pressure (100 KN), XRPD and DSC; format: physicochemical; conditions: overnight, 10 mg
Protocol: Applied pressure (100 KN): 10 mg of RPL554 was left in a pressing disc system overnight, forming a fine and uniform disc with a thickness of less than 0.1 mm. The disc was gently ground and analysed by XRPD (FIG. 13).

[5] = polymorph A (marketed) vs form B; cited from earlier work

SMILES | Aqueous solubility [1] | Product by HPLC analysis after crash cooling a melt ([2]; crash cooled melt, amorphous by XRPD) | Starting material remaining by LC after crash cooled melt ([2]; heated up to 245° C. and rapidly cooled) | Form change on slurry maturation (XRPD) [3] | Form change under applied pressure (XRPD) [4] | Difference in bio-activity between form A and form B [5] | Aqueous solubility compared with Form I ([1]; 25° C.)
COc1cc2c(cc1OC)-c1c/c(=N\c3c(C)cc(C)cc3C)n(CCNC(N)=O)c(=O)n1CC2 [RPL554, N-{2-[(2E)-2-(mesitylimino)-9,10-dimethoxy-4-oxo-6,7-dihydro-2H-pyrimido[6,1-a]-isoquinolin-3 (4H)-yl]ethyl}urea] | 1 µg/mL | < 20% | 26% | extremely resilient to change | generates an amorphous phase | – | –
CCCCCCCCCCCCCCCC(=O)OC[C@@H](NC(=O)C(Cl)Cl)[C@H](O)c1ccc([N+](=O)[O-])cc1 [Chloramphenicol-3-palmitate] | – | – | – | – | – | eight | –
COc1cc2c(cc1OC)-c1c/c(=N\c3c(C)cc(C)cc3C)n(CCNC(N)=O)c(=O)n1CC2 [JN376F] | 30 µg/mL | – | – | – | – | – | more soluble than Form I
